Laboratory results reported in ChEMBL document CHEMBL5528063, “Antitrypanosomal Chloronitrobenzamides” (J Med Chem, 2024).
Calls of active or inactive are those of the source. The calls are words filed in the database; no cut-off is given here.

What was measured:
[1] = Cmax in C57BL/6 mouse at 50 mg/kg, po measured after 144 hrs by LC-MS/MS analysis; assay type: ADME, organism-based; conditions: in vivo
[2] = Cytotoxicity against HEK293 cells assessed as inhibition of cell growth incubated for 72 hrs by CellTiter-Glo luminescence assay; assay type: toxicity, cell-based; conditions: human
[3] = Elimination half-life in C57BL/6 mouse at 50 mg/kg, po measured after 144 hrs by LC-MS/MS analysis; assay type: ADME, organism-based; conditions: in vivo, read-out: beta t1/2 (converted)
[4] = Efflux ratio of apparent permeability from basolateral to apical side over apical to basolateral side in human Caco-2 cells incubated for 2 hrs by UPLC/MS analysis; assay type: ADME, cell-based
[5] = Protein binding in mouse plasma at 20 uM incubated for 18 hrs by UPLC-MS analysis; assay type: ADME, cell-free; conditions: read-out: PPB (converted)
[6] = Metabolic stability in rat liver microsomes assessed as half-life at 20 uM; assay type: ADME, Microsome
HepG2 = assay: Cytotoxicity against human HepG2 cells assessed as inhibition of cell growth incubated for 72 hrs by CellTiter-Glo luminescence assay; assay type: functional, cell-based; conditions: HepG2, 72 h
[7] = Permeability of compound at pH 7.4 incubated for 30 mins by PAMPA-GIT assay; assay type: ADME; conditions: read-out: permeability
[8] = Stability of compound in PBS at pH 7.4 assessed as half-life measured after 48 hrs by UPLC-MS analysis; assay type: physicochemical
[9] = Metabolic stability in human liver microsomes assessed as half-life at 20 uM incubated for 2 hrs by UPLC-MS analysis; assay type: ADME, Microsome
[10] = Stability in human plasma assessed as half-life measured after 24 hrs by UPLC-MS analysis; assay type: ADME, cell-free
[11] = Drug concentration in C57BL/6 mouse brain at 50 mg/kg, po measured after 144 hrs by LC-MS/MS analysis; assay type: ADME, organism-based; conditions: read-out: Ct
[12] = Stability in mouse plasma assessed as half-life measured after 24 hrs by UPLC-MS analysis; assay type: ADME, cell-free
Raji = assay: Cytotoxicity against human Raji cells assessed as inhibition of cell growth incubated for 72 hrs by CellTiter-Glo luminescence assay; assay type: functional, cell-based
[13] = Stability of compound in PBS at pH 3 assessed as half-life measured after 48 hrs by UPLC-MS analysis; assay type: physicochemical
[14] = tested on: Trypanosoma brucei rhodesiense; assay: Antitrypanosomal activity against Trypanosoma brucei rhodesiense STIB900 infected in NMRI mouse model assessed as survival at 50 mg/kg, po pre-infected for 3 days followed by compound administration for 4 days and measured 60 days post infection (reference value: 7 day); assay type: functional; conditions: time 57 day
[15] = tested on: Trypanosoma brucei brucei; assay: Trypanocidal activity against Trypanosoma brucei brucei 427 assessed as reduction in parasitemia at 0.1 to 1.5 uM incubated for 4 days in presence of nifurtimox by CellTiter-Glo assay; assay type: functional, organism-based; conditions: dose 0.1-1.5 µM, time 4.0 day
[16] = Stability of compound in PBS at pH 5 assessed as half-life measured after 48 hrs by UPLC-MS analysis; assay type: physicochemical
[17] = Stability in rat plasma assessed as half-life measured after 24 hrs by UPLC-MS analysis; assay type: ADME, cell-free
[18] = Oral bioavailability in Sprague-Dawley rat at 50 mg/kg measured after 45.3 hrs by LC/MS analysis; assay type: ADME, organism-based; conditions: in vivo
[19] = Cmax in Sprague-Dawley rat at 6 mg/kg, iv measured after 45.3 hrs by LC/MS analysis; assay type: ADME, organism-based; conditions: in vivo
[20] = Metabolic stability in […] mouse liver microsomes assessed as intrinsic clearance at 20 uM measured after 2 hrs by UPLC-MS analysis; assay type: ADME, Microsome; conditions: read-out: CLH
[21] = Metabolic stability in rat liver microsomes assessed as intrinsic clearance at 20 uM; assay type: ADME, Microsome; conditions: read-out: CLH
[22] = Protein binding in rat plasma at 20 uM incubated for 18 hrs by UPLC-MS analysis; assay type: ADME, cell-free; conditions: read-out: PPB (converted)
[23] = Cytotoxicity against human BJ cells assessed as inhibition of cell growth incubated for 72 hrs by CellTiter-Glo luminescence assay; assay type: toxicity, cell-based
[24] = AUC in C57BL/6 mouse at 50 mg/kg, po measured after 144 hrs by LC-MS/MS analysis; assay type: ADME, organism-based; conditions: in vivo
[25] = tested on: Trypanosoma brucei brucei; assay: Antitrypanosomal activity against Trypanosoma brucei brucei 427 assessed as inhibition of parasite proliferation incubated for 48 hrs by CellTiter-Glo luminescent assay; assay type: functional, organism-based; conditions: Trypanosoma brucei, 427, 48 h
Trypanosoma vivax = assay: Antitrypanosomal activity against Trypanosoma vivax STIB 719/ ILRAD 560 assessed as inhibition of parasite proliferation incubated for 45 hrs by resazurin dye based microplate fluorometric analysis; assay type: functional, organism-based; conditions: STIB 719/ ILRAD 560, 45 h
[26] = Metabolic stability in […] mouse liver microsomes assessed as half-life at 20 uM measured after 2 hrs by UPLC-MS analysis; assay type: ADME, Microsome
[27] = tested on: Trypanosoma brucei brucei; assay: Trypanocidal activity against Trypanosoma brucei brucei 427 assessed as reduction in parasitemia at 8 uM incubated for 4 days by clonal dilution based CellTiter-Glo assay; assay type: functional, organism-based; conditions: time 4.0 day
Trypanosoma congolense [28] = assay: Antitrypanosomal activity against Trypanosoma congolense STIB 736/IL-1180 infected in NMRI mouse model assessed as survival at 50 mg/kg, ip administrated […] starting from day 7 to day 10 post infection (reference value: 11 day); assay type: functional
[29] = tested on: Trypanosoma brucei brucei; assay: Antitrypanosomal activity against Trypanosoma brucei brucei 427 assessed as reduction in parasitemia in presence of fetal bovine serum; assay type: functional, organism-based
[30] = Metabolic stability in human liver microsomes assessed as intrinsic clearance at 20 uM incubated for 2 hrs by UPLC-MS analysis; assay type: ADME, Microsome; conditions: read-out: CLH
Trypanosoma congolense [31] = assay: Antitrypanosomal activity against Trypanosoma congolense IL3000 assessed as inhibition of parasite proliferation incubated for 69 hrs by resazurin dye based microplate fluorometric analysis; assay type: functional, organism-based; conditions: IL3000, 69 h
[32] = Protein binding in human plasma at 20 uM incubated for 18 hrs by UPLC-MS analysis; assay type: ADME, cell-free; conditions: read-out: PPB (converted)
[33] = Toxicity in Sprague-Dawley rat at 50 mg/kg, po measured after 45.3 hrs; assay type: organism-based; conditions: in vivo
[34] = Stability of compound in SGF assessed as half-life measured after 24 hrs by UPLC-MS analysis; assay type: ADME
[35] = Clearance in C57BL/6 mouse at 50 mg/kg, po measured after 144 hrs by LC-MS/MS analysis; assay type: ADME, organism-based; conditions: in vivo
[36] = Aqueous solubility of compound in 1-propanol at pH 7.4 incubated for 18 hrs by UV spectrum analysis; assay type: physicochemical; conditions: 1-propanol (aqueous, pH 7.4), pH 7.4
[37] = Tmax in C57BL/6 mouse at 50 mg/kg, po measured after 144 hrs by LC-MS/MS analysis; assay type: ADME, organism-based; conditions: in vivo

## Cc1ccc(-c2nc3ccccc3s2)cc1NC(=O)c1cc([N+](=O)[O-])c(N2CCN(C)CC2)cc1Cl
[1]
  Cmax: 6.5 µM
[2]
  EC50 at 72 h: > 25 µM
[3]
  half-life: 420 min
[4]
  efflux ratio at 2 h: 1.92
[5]
  fraction unbound at 18 h, 20 µM: 0.009
[6]
  half-life at 20 µM: > 240 min
HepG2
  EC50: > 25 µM
[7]
  Papp at 0.5 h: 237 ×10⁻⁶ cm/s
[8]
  half-life: 342 min
[9]
  half-life at 20 µM: > 240 min
[10]
  half-life: > 1440 min
[11]
  concentration at 144 h: 8 µM
[12]
  half-life: > 1440 min
Raji
  EC50: > 25 µM
[13]
  half-life: > 1440 min
[14]
  Survival: 14 days
[15]
  Activity: Active
[16]
  half-life: > 1440 min
[17]
  half-life: > 1440 min
[18]
  bioavailability: 14%
[19]
  Cmax: > 10 µM
[20]
  CLint scaled at 20 µM: < 14 mL/min/kg
[21]
  CLint scaled at 20 µM: < 12 mL/min/kg
[22]
  fraction unbound at 18 h, 20 µM: 0.007
[23]
  EC50 at 72 h: > 25 µM
[24]
  AUC at 144 h: 83 µM·h
[25]
  EC50: 1 nM
Trypanosoma vivax
  EC50: 6 nM
[26]
  half-life at 20 µM: > 240 min
[27]
  Activity: inactive
Trypanosoma congolense [28]
  Survival: 21 days
[29]
  Activity: Active
[30]
  CLint scaled at 20 µM: < 6 mL/min/kg
Trypanosoma congolense [31]
  EC50: 3 nM
[32]
  fraction unbound at 18 h, 20 µM: 0.002
[33]
  Activity: Non-Toxic
[34]
  half-life: > 1440 min
[35]
  CL/F: 0.357 mL/min
[36]
  solubility at 18 h: ≤ 0.3 µM
[37]
  Tmax: 4 h
